Experimental data: the kinase profiling compilation of Christmann-Franck et al. (2016)

How the values were obtained:
Assay in all cases: KINOMEscan competition binding
Conditions in all cases: compound 0.5 µM
CDK9 (human) = CDK9 (human) (UniProt P50750)
MYLK (human) = MYLK (human) (UniProt Q15746)
CAMK4 (human) = CAMK4 (human) (UniProt Q16566)
TSSK1B (human) = TSSK1B (human) (UniProt Q9BXA7)
ERN1 (human) = ERN1 (human) (UniProt O75460)
TRPM6 (human) = TRPM6 (human) (UniProt Q9BX84)
PAK1 (human) = PAK1 (human) (UniProt Q13153)
DCLK1 (human) = DCLK1 (human) (UniProt O15075)
ACVR2A (human) = ACVR2A (human) (UniProt P27037)
PKN1 (human) = PKN1 (human) (UniProt Q16512)
NUAK1 (human) = NUAK1 (human) (UniProt O60285)
CDC2L2 (human) = CDC2L2 (human) (UniProt Q9UQ88)
BMPR1B (human) = BMPR1B (human) (UniProt O00238)
PRKAA2 (human) = PRKAA2 (human) (UniProt P54646)
MAP3K2 (human) = MAP3K2 (human) (UniProt Q9Y2U5)
TNK1 (human) = TNK1 (human) (UniProt Q13470)
[1] = biological target: TYK2 JH1 catalytic (human) (UniProt P29597)
STK36 (human) = STK36 (human) (UniProt Q9NRP7)
ADCK4 (human) = ADCK4 (human) (UniProt Q96D53)
FRK (human) = FRK (human) (UniProt P42685)
SIK2 (human) = SIK2 (human) (UniProt Q9H0K1)
HIPK4 (human) = HIPK4 (human) (UniProt Q8NE63)
PRKCD (human) = PRKCD (human) (UniProt Q05655)
DMPK (human) = DMPK (human) (UniProt Q09013)
NEK4 (human) = NEK4 (human) (UniProt P51957)
DCLK3 (human) = DCLK3 (human) (UniProt Q9C098)
CSNK2A2 (human) = CSNK2A2 (human) (UniProt P19784)
CAMKK1 (human) = CAMKK1 (human) (UniProt Q8N5S9)
PRKD1 (human) = PRKD1 (human) (UniProt Q15139)
CAMK2D (human) = CAMK2D (human) (UniProt Q13557)
CLK2 (human) = CLK2 (human) (UniProt P49760)
CSNK2A1 (human) = CSNK2A1 (human) (UniProt P68400)
PRKCQ (human) = PRKCQ (human) (UniProt Q04759)
MAPK8 (human) = MAPK8 (human) (UniProt P45983)
CLK4 (human) = CLK4 (human) (UniProt Q9HAZ1)
YSK4 (human) = YSK4 (human) (UniProt Q56UN5)
PLK3 (human) = PLK3 (human) (UniProt Q9H4B4)
CDK7 (human) = CDK7 (human) (UniProt P50613)
NEK7 (human) = NEK7 (human) (UniProt Q8TDX7)
[2] = tested on: PIK3CA (human), P42336 [H1047L]
TAOK3 (human) = TAOK3 (human) (UniProt Q9H2K8)
SIK3 (human) = SIK3 (human) (UniProt Q9Y2K2)
Chain of SIK3 (human) (Q9Y2K2 whole entry, looked up): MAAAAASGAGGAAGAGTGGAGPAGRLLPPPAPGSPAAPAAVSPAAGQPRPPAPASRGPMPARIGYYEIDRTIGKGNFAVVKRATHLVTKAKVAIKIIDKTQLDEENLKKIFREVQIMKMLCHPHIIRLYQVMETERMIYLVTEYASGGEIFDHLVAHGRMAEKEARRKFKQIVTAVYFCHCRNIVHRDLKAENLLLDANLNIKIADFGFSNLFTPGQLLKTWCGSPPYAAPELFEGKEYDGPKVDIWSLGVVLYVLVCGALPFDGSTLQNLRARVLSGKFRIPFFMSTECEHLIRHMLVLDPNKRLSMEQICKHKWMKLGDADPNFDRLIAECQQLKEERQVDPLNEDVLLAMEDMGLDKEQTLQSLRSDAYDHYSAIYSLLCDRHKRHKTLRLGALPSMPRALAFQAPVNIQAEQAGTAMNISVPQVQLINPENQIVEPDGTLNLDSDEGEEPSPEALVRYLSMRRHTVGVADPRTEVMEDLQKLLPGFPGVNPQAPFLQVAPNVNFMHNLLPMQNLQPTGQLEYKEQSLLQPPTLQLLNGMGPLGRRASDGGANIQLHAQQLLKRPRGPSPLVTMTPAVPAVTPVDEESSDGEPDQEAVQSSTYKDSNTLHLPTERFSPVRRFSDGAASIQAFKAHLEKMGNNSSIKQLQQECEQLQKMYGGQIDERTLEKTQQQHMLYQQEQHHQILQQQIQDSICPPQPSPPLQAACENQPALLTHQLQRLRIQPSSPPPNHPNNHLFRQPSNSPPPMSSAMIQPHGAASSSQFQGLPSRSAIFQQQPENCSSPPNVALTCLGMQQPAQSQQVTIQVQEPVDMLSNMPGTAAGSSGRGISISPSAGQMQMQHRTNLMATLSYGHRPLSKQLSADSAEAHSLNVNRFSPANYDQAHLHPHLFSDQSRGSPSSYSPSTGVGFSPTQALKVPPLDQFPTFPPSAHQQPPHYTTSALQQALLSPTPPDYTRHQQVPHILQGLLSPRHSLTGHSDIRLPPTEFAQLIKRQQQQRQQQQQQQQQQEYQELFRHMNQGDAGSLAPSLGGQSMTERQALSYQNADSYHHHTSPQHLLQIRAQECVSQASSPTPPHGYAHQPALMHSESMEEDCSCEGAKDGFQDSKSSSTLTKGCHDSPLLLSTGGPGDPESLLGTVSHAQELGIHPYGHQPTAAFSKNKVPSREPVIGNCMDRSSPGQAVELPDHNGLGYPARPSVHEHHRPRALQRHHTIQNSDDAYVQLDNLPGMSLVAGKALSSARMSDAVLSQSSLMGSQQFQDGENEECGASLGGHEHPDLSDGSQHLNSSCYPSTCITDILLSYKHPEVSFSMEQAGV

Chain of PRKCQ (human) (Q04759 whole entry, looked up): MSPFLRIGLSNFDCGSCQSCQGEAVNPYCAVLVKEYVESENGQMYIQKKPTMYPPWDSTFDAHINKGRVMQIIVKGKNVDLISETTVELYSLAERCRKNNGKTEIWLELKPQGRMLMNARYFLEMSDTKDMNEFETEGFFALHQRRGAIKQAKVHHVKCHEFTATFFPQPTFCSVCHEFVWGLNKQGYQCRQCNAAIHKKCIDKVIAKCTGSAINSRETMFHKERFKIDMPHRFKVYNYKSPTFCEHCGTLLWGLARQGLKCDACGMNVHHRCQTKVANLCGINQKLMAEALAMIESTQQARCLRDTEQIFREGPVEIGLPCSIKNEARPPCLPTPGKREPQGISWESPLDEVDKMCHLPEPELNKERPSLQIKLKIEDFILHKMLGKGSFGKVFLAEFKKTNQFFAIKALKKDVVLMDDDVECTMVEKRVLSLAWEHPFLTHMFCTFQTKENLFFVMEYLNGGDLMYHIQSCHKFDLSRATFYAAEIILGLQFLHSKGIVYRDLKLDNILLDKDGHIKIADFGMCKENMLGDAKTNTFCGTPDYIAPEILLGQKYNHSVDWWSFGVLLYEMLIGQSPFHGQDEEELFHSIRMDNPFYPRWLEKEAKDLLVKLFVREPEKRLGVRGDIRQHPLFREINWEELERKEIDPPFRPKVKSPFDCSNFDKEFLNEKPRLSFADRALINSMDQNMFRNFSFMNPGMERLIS
Chain of ADCK4 (human) (Q96D53 whole entry, looked up): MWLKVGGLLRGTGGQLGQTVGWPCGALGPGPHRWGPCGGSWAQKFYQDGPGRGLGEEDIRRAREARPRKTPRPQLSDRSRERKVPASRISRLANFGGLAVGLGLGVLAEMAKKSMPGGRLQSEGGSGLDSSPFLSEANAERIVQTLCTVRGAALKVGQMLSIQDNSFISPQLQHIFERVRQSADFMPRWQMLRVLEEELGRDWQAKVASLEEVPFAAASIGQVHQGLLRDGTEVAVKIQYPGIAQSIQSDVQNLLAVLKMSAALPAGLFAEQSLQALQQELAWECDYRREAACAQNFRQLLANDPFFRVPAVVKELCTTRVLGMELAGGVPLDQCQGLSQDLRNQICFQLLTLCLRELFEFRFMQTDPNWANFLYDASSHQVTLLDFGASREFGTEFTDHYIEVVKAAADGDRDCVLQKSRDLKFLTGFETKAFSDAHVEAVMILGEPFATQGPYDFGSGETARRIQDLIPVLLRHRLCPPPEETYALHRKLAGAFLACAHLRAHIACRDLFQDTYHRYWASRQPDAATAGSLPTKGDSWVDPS
Chain of DCLK1 (human) (O15075 whole entry, looked up): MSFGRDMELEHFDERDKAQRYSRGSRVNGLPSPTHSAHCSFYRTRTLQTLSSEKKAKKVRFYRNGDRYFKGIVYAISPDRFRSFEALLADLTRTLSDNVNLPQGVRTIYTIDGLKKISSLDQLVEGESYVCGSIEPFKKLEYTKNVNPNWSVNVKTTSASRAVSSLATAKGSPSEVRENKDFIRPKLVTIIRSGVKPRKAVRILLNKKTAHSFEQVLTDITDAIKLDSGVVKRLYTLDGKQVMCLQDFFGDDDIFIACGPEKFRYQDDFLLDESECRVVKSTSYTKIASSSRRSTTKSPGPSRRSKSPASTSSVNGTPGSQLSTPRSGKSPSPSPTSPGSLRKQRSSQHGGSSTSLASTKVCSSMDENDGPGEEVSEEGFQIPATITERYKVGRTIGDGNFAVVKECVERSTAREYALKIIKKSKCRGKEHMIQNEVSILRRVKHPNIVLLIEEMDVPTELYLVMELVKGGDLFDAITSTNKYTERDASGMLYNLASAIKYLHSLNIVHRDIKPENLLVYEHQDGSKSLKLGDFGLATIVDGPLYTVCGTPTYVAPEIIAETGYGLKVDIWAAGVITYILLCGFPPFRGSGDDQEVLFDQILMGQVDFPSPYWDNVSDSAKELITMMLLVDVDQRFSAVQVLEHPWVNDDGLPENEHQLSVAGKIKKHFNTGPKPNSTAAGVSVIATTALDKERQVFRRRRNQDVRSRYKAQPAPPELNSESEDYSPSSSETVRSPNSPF
Chain of NEK7 (human) (Q8TDX7 whole entry, looked up): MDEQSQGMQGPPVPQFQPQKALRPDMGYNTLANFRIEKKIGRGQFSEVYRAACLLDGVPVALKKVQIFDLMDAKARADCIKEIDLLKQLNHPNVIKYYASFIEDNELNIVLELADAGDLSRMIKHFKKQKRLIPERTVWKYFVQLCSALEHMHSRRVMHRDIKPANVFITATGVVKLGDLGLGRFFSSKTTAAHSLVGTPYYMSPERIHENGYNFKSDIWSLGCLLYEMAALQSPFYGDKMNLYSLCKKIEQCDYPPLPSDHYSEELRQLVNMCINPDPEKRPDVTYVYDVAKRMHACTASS
Chain of CLK4 (human) (Q9HAZ1 whole entry, looked up): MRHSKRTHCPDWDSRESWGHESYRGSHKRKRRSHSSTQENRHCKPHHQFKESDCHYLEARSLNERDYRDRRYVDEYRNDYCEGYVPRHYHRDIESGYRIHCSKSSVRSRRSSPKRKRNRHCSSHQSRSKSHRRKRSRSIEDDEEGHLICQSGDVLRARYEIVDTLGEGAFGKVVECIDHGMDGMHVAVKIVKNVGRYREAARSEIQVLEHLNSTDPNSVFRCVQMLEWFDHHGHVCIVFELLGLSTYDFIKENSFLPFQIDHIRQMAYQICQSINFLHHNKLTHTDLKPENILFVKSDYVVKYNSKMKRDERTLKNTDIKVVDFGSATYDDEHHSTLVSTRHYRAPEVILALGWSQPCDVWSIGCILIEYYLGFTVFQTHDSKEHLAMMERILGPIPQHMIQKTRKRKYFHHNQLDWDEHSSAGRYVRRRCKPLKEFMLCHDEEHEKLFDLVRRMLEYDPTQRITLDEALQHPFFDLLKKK
Chain of CAMK4 (human) (Q16566 whole entry, looked up): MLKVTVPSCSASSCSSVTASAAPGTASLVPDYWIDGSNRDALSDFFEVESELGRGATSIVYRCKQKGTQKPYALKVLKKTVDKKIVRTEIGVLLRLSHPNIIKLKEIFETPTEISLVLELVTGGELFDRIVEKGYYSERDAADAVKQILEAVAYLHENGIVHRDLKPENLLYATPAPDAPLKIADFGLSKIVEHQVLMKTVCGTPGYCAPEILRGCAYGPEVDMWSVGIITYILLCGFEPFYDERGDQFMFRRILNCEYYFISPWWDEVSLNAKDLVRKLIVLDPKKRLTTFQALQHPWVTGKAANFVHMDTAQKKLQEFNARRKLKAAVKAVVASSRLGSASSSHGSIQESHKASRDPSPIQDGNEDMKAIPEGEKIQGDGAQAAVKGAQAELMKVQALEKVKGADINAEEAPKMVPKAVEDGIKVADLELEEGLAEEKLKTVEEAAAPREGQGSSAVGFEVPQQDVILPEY
Chain of CSNK2A2 (human) (P19784 whole entry, looked up): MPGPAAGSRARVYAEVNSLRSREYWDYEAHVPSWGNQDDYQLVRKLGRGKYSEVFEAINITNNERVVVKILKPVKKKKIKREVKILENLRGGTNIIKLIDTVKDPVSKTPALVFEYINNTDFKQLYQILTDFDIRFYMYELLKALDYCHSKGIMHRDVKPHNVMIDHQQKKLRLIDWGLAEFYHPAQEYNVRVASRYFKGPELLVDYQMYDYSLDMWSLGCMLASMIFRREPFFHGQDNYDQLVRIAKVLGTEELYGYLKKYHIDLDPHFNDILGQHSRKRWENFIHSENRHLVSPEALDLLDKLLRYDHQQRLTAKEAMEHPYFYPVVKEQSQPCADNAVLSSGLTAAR

Q: With `Cn1c2ccccc2c2c3c(c4c5ccccc5n(CCC#N)c4c21)CNC3=O` as the molecule, how does the kinase still bound, per cent of control (CDK9 (human)) read?
A: 100%

Q: And the kinase still bound, per cent of control (MYLK (human))?
A: 56%

Q: And the kinase still bound, per cent of control (CAMK4 (human))?
A: 100%

Q: And the kinase still bound, per cent of control (TSSK1B (human))?
A: 82%

Q: And the kinase still bound, per cent of control (ERN1 (human))?
A: 43%

Q: And the kinase still bound, per cent of control (TRPM6 (human))?
A: 81%

Q: What about the kinase still bound, per cent of control (PAK1 (human)) of the same molecule?
A: 84%

Q: And the kinase still bound, per cent of control (DCLK1 (human))?
A: 87%

Q: What about the kinase still bound, per cent of control (ACVR2A (human)) of the same molecule?
A: 100%

Q: What about the kinase still bound, per cent of control (PKN1 (human)) of the same molecule?
A: 9.4%

Q: And the kinase still bound, per cent of control (NUAK1 (human))?
A: 89%

Q: What about the kinase still bound, per cent of control (CDC2L2 (human)) of the same molecule?
A: 84%

Q: What about the kinase still bound, per cent of control (BMPR1B (human)) of the same molecule?
A: 56%

Q: What about the kinase still bound, per cent of control (PRKAA2 (human)) of the same molecule?
A: 73%

Q: And the kinase still bound, per cent of control (MAP3K2 (human))?
A: 0.1%

Q: And the kinase still bound, per cent of control (TNK1 (human))?
A: 2%

Q: What about the kinase still bound, per cent of control [1] of the same molecule?
A: 0.6%

Q: And the kinase still bound, per cent of control (STK36 (human))?
A: 100%

Q: What about the kinase still bound, per cent of control (ADCK4 (human)) of the same molecule?
A: 93%

Q: And the kinase still bound, per cent of control (FRK (human))?
A: 84%

Q: And the kinase still bound, per cent of control (SIK2 (human))?
A: 36%

Q: What about the kinase still bound, per cent of control (HIPK4 (human)) of the same molecule?
A: 8%

Q: What about the kinase still bound, per cent of control (PRKCD (human)) of the same molecule?
A: 43%

Q: What about the kinase still bound, per cent of control (DMPK (human)) of the same molecule?
A: 100%

Q: What about the kinase still bound, per cent of control (NEK4 (human)) of the same molecule?
A: 100%

Q: What about the kinase still bound, per cent of control (DCLK3 (human)) of the same molecule?
A: 100%

Q: And the kinase still bound, per cent of control (CSNK2A2 (human))?
A: 65%

Q: And the kinase still bound, per cent of control (CAMKK1 (human))?
A: 6.1%

Q: And the kinase still bound, per cent of control (PRKD1 (human))?
A: 24%

Q: And the kinase still bound, per cent of control (CAMK2D (human))?
A: 33%

Q: And the kinase still bound, per cent of control (CLK2 (human))?
A: 38%

Q: And the kinase still bound, per cent of control (CSNK2A1 (human))?
A: 80%

Q: What about the kinase still bound, per cent of control (PRKCQ (human)) of the same molecule?
A: 59%

Q: What about the kinase still bound, per cent of control (MAPK8 (human)) of the same molecule?
A: 18%

Q: What about the kinase still bound, per cent of control (CLK4 (human)) of the same molecule?
A: 6.1%

Q: What about the kinase still bound, per cent of control (YSK4 (human)) of the same molecule?
A: 0%

Q: And the kinase still bound, per cent of control (PLK3 (human))?
A: 100%

Q: What about the kinase still bound, per cent of control (CDK7 (human)) of the same molecule?
A: 84%

Q: And the kinase still bound, per cent of control (NEK7 (human))?
A: 100%

Q: What about the kinase still bound, per cent of control [2] of the same molecule?
A: 43%

Q: And the kinase still bound, per cent of control (TAOK3 (human))?
A: 12%

Q: What about the kinase still bound, per cent of control (SIK3 (human)) of the same molecule?
A: 100%
